# Assays:
# [1] = system: (HEPG2); conditions: human, 24 h, 30 μM
# [2] = s9, 60 min, 1 μM
# Procedure: The metabolic stability was determined used human liver S9 homogenate that including both microsomal and cytosolic enzyme activities. The test compound was diluted in methanol (0.625%) and acetonitrile (0.625%) at the concentration 1 μM and incubated in the human liver pool (protein=1 mg/mL) during 60 min at 37° C. Peak areas corresponding to all analytes (metabolic products) were determined by HPLC-MS/MS. Areas were recorded and ratios of peak areas of analytes to that of internal standard for each analyte were determined. The ratio of precursor compound remaining after 60 minutes and the amount remaining at time zero, expressed as percent, are reported as metabolic stability. Higher values mean higher metabolic stability.
# [3] = system: SK-OV3; test: Inhibition of cells growth by colorimetric assay (SRB), SK-OV3; format: cell-based
# Summary of the method: (§1)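 Absorbance at 490 nm of sulphorhodamine B bound by TCA-fixed cells gives the growth readout after 48 h continuous exposure to test samples (10 to 10^−8 μg/ml). Cells were seeded at 5×10^3 per well in RPMI 1640/10% FBS and allowed 18 h to attach first.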
# [4] = target: CYP3A4 (Homo sapiens, UniProt P08684); test: in vitro; conditions: CYP3A4 (% inhibition)
# [5] = system: AML-12, normal mouse liver cells; conditions: 24 h
# [6] = system: NRK-52E, normal rat kidney cells; conditions: 24 h
# [7] = system: FDC-P1, normal mouse myelogeous stem cells; conditions: 24 h
# [8] = physchem; conditions: pH 7.4, log D n-Octanol-Dulbecco's PBS pH 7.4
# [9] = target: CYP2D6 (Homo sapiens, UniProt P10635); test: in vitro; conditions: CYP2D6 (% inhibition)
# Procedure: For CYP2D6 inhibition assay, the compound are tested at 10 μM in duplicate with a 0.25% final concentration of both methanol and acetonitrile in presence of the fluorescent substrate AMMC (3-[2-N,N-diethyl-N-methylammonium)ethyl]-7-methoxy-4-methylcoumarin) at the concentration of 1.5 μM). The conversion of the AMMC in AHMC (3-[2-N,N-diethyl-N-methylammonium)ethyl]-7-hydroxy-4-methylcoumarin) is determined spectrofluorimetry after incubation with the enzyme during 450 min at 37° C.
# For both assays, the fluorescent intensity measured at t=0 is subtracted from that measured after the appropriate incubation time. The ratio of signal-to-noise is calculated by comparing the fluorescence in incubations containing the test compound to the control samples containing the same solvent vehicle. The percent of control activity is calculated and reported as percent inhibition.
# [10] = system: H9c2 (2-1), normal rat cardiac muscle cells; conditions: 24 h
# [11] = system: LNCAP; test: cells; format: cell-based
# Summary of the method: as §1
# [12] = system: MEL-28; test: cells; format: cell-based
# Summary of the method: as §1
# [13] = system: LOVO; test: cells; format: cell-based
# Summary of the method: as §1
# [14] = system: IGROV-ET; test: cells; format: cell-based
# Summary of the method: as §1
# [15] = system: K562; test: cells; format: cell-based
# Summary of the method: as §1
# [16] = system: SK-BR3; test: cells; format: cell-based
# Summary of the method: as §1
# [17] = system: A549; test: cells; format: cell-based
# Summary of the method: as §1
# [18] = system: LOVO-DOX; test: cells; format: cell-based
# Summary of the method: as §1
# [19] = system: DU145; test: cells; format: cell-based
# Summary of the method: as §1
# [20] = system: HT29; test: cells; format: cell-based
# Summary of the method: as §1
# [21] = system: IGROV; test: cells; format: cell-based
# Summary of the method: as §1
# [22] = system: PANC-1; test: cells; format: cell-based
# Summary of the method: as §1
# [23] = physchem; conditions: pH 7.4, aqueous buffer, Solubility Dulbecco's PBS pH 7.4
# [24] = system: H-MEC-1; test: Inhibition of cells growth by colorimetric assay (SRB), H-MEC-1; format: cell-based
# Summary of the method: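 Readout: SRB OD490, triplicate wells. Setup: 5×10^3 cells/well, RPMI 1640 + 10% FBS, 37° C, 5% CO2; 18 h pre-attachment; 48 h sample exposure, 10 to 10^−8 μg/ml. Outputs GI, TGI (cytostatic), LC (cytotoxic).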
# [25] = system: L8, normal rat skeletal muscle cells; conditions: 24 h
# Chain of CYP3A4 (P08684 whole entry): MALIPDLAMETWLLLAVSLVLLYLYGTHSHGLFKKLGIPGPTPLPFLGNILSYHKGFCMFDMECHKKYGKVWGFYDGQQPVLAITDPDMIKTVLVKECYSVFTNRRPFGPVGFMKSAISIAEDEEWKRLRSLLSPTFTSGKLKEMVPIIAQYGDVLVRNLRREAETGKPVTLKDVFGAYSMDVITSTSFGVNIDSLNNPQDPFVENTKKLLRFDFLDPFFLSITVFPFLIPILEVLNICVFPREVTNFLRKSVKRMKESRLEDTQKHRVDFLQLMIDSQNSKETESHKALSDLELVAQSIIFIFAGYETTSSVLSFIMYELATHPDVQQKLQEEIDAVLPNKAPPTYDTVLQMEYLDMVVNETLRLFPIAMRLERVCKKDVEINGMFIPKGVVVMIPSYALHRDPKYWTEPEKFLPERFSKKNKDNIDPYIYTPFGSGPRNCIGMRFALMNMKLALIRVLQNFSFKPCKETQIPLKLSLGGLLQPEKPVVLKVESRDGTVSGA
# Chain of CYP2D6 (P10635 whole entry): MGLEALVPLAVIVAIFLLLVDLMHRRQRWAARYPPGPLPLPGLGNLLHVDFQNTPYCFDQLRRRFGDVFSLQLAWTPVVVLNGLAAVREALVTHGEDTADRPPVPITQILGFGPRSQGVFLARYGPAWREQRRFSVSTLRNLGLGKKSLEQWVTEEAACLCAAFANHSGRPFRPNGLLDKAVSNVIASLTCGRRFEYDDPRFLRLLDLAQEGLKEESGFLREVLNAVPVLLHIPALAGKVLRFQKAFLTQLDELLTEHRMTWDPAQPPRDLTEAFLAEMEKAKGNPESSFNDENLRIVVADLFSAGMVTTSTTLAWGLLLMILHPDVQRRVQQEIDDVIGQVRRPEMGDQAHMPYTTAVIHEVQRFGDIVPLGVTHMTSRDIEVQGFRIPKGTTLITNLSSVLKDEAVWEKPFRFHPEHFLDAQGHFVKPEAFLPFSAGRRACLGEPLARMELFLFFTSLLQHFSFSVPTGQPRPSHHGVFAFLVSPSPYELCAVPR
compound,measurement,setting,value
COc1c(C)cc2c(c1OC(=O)OC(C)(C)C)[C@@H]1C3[C@@H]4SC[C@]5(NCCc6c5[nH]c5ccccc65)C(=O)COC[C@@H](c5c6c(c(C)c(OC(C)=O)c54)OCO6)N3[C@@H](O)[C@H](C2)N1C (some centres unmarked) [Compound 46],Cell Viability (% inhibition),[1],33 % inhibition
same,Human Liver S9 Metabolic Stability (% remaining),[2],7 % remaining
same,GI50,"[3]; Homo sapiens, SK-OV-3, SK-OV3",30.6 nM
same,CC50,"[3]; Homo sapiens, SK-OV-3, read-out: LC50, SK-OV3",≥ 11700 nM
same,TGI,[3]; SK-OV3,2.00E−06
same,"inhibition at 30 min, 10 µM",[4],60%
same,Liver,[5],5.01E−08
same,Kidney,[6],4.01E−08
same,Myelo,[7],1.17E−07
same,logD at 60 min,[8],> 5
same,"inhibition at 450 min, 10 µM",[9],16%
same,Heart,[10],3.51E−08
same,GI50,"[11]; Homo sapiens, LNCaP",0.117 nM
same,CC50,"[11]; Homo sapiens, LNCaP, read-out: LC50, LNCAP",17.5 nM
same,TGI,[11]; LNCAP,3.25E−09
same,GI50,"[12]; Homo sapiens, SK-MEL-28, MEL-28",12.4 nM
same,CC50,"[12]; Homo sapiens, SK-MEL-28, read-out: LC50, MEL-28",153 nM
same,TGI,[12]; MEL-28,4.07E−08
same,GI50,"[13]; Homo sapiens, LoVo",15.6 nM
same,CC50,"[13]; Homo sapiens, LoVo, read-out: LC50, LOVO",≥ 11700 nM
same,TGI,[13]; LOVO,5.70E−08
same,GI50,"[14]; Homo sapiens, IGROV-ET",49.5 nM
same,CC50,"[14]; Homo sapiens, read-out: LC50, IGROV-ET",7350 nM
same,TGI,[14]; IGROV-ET,1.29E−07
same,GI50,"[15]; Homo sapiens, K562, K562",1220 nM
same,CC50,"[15]; Homo sapiens, K562, read-out: LC50, K562",3380 nM
same,TGI,[15]; K562,2.02E−06
same,GI50,"[16]; Homo sapiens, SK-BR-3, SK-BR3",16.3 nM
same,CC50,"[16]; Homo sapiens, SK-BR-3, read-out: LC50, SK-BR3",412 nM
same,TGI,[16]; SK-BR3,5.84E−08
same,TGI,[17]; A549,6.78E−08
same,GI50,"[17]; Homo sapiens, A549, A549, read-out: GI50",33.3 nM
same,CC50,"[17]; Homo sapiens, A549, read-out: LC50, A549",335 nM
same,GI50,"[18]; Homo sapiens, LOVO-DOX",38.2 nM
same,CC50,"[18]; Homo sapiens, read-out: LC50, LOVO-DOX",≥ 11700 nM
same,TGI,[18]; LOVO-DOX,2.41E−07
same,TGI,[19]; DU145,4.61E−08
same,GI50,"[19]; Homo sapiens, DU-145, DU145",6.48 nM
same,CC50,"[19]; Homo sapiens, DU-145, read-out: LC50, DU145",≥ 11700 nM
same,TGI,[20]; HT29,1.22E−06
same,GI50,"[20]; Homo sapiens, HT-29, HT29",44.4 nM
same,CC50,"[20]; Homo sapiens, HT-29, read-out: LC50, HT29",≥ 11700 nM
same,TGI,[21],5.40E−08
same,GI50,[21]; Homo sapiens,23.2 nM
same,CC50,"[21]; Homo sapiens, read-out: LC50, IGROV",192 nM
same,GI50,"[22]; Homo sapiens, PANC-1, PANC-1",41.1 nM
same,CC50,"[22]; Homo sapiens, PANC-1, read-out: LC50, PANC-1",≥ 11700 nM
same,TGI,[22]; PANC-1,2.58E−07
same,solubility,[23],1.37 µM
same,TGI,[24]; H-MEC-1,1.17E−06
same,GI50,"[24]; Homo sapiens, HMEC-1, H-MEC-1",26 nM
same,CC50,"[24]; Homo sapiens, HMEC-1, read-out: LC50, H-MEC-1",≥ 11700 nM
same,Skeletal,[25],2.16E−07

# Source: patent US7763615B2, “Ecteinascidin analogs for use as antitumour agents” (priority 2001, dated 2010)
